Measured values published in ChEMBL document CHEMBL1155057, “Studies toward the discovery of the next generation of antidepressants. Part 6: Dual 5-HT1A receptor and serotonin transporter affinity within a class of arylpiperazinyl-cyclohexyl indole derivatives” (Bioorg Med Chem, 2008).

Legend:
[1] = biological target: Sodium-dependent serotonin transporter (Rattus norvegicus) (UniProt P31652); test: Displacement of [3H]paroxetine from rat cortical 5HTT reuptake site at 100 nM
[2] = biological target: T1, 5-hydroxytryptamine receptor 1A (Homo sapiens, UniProt P08908); test: biochemical
T1 sequence (P08908 whole entry): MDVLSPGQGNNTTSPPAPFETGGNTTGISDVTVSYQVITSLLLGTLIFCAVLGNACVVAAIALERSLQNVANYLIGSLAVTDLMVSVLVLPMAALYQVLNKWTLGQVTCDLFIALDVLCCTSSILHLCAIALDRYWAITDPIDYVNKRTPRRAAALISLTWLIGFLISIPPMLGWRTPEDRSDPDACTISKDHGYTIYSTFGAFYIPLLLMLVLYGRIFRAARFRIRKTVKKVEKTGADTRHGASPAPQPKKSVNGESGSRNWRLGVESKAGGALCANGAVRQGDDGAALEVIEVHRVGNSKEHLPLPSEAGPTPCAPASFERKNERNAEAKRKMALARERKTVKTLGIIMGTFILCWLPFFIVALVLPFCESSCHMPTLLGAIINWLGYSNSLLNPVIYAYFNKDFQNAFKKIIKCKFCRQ

[3] = biological target: Sodium-dependent serotonin transporter (Rattus norvegicus, UniProt P31652)
Sequence of Sodium-dependent serotonin transporter (P31652 whole entry): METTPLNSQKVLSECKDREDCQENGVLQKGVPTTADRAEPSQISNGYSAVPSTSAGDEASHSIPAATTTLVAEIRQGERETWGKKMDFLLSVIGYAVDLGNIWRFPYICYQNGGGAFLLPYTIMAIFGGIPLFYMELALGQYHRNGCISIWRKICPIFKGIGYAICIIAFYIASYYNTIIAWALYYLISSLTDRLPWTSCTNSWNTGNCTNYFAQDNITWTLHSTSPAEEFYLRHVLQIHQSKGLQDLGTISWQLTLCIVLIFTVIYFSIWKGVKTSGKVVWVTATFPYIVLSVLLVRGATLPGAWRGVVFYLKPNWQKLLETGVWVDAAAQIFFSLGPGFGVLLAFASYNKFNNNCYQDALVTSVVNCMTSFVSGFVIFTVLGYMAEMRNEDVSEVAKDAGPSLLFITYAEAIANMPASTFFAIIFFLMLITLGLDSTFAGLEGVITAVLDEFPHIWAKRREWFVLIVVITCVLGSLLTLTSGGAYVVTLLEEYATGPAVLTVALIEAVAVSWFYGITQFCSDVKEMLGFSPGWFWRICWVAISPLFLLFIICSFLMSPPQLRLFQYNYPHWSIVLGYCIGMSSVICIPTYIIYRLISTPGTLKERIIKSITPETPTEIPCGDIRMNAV

[4] = biological target: T2, 5-hydroxytryptamine receptor 1A (Homo sapiens) (UniProt P08908); test: Intrinsic activity at human 5HT1A receptor expressed in CHO cells by GTPgammaS binding assay relative to serotonin; assay type: functional, cell-based
T2 sequence (whole entry): T1 sequence (P08908 whole entry)

[5] = biological target: Sodium-dependent serotonin transporter (Rattus norvegicus) (UniProt P31652); test: Displacement of [3H]paroxetine from rat cortical 5HTT reuptake site at 1 uM
[6] = biological target: T2, 5-hydroxytryptamine receptor 1A (Homo sapiens); test: Displacement of [3H]8-OH-DPAT from human 5HT1A receptor expressed in CHO cells at 1 uM; assay type: cell-based
Rattus norvegicus = species: Rattus norvegicus; settings: 100 nM
Description: Displacement of 3H]paroxetine from rat cortical alpha1 adrenergic receptor at 100 nM

Sequence of Sodium-dependent serotonin transporter (Rattus norvegicus) (P31652 whole entry): as above

SMILES	Ki [2]	Ki [3]	Emax [4]	other results
Clc1ccc2[nH]cc([C@H]3CC[C@@H](N4CCN(c5cccc6[nH]ccc56)CC4)CC3)c2c1				inhibition [1]: 28%
Cn1cc([C@H]2CC[C@@H](N3CCN(c4cccc5[nH]ccc45)CC3)CC2)c2cc(F)ccc21	0.124 µM	0.0116 µM		
C1=Nc2cccc(N3CCN([C@H]4CC[C@H](c5c[nH]c6ncccc65)CC4)CC3)c2C1	0.0078 µM			inhibition [1]: 18%
Cc1[nH]c2ccccc2c1[C@H]1CC[C@H](N2CCN(c3cccc4[nH]ccc34)CC2)CC1				inhibition [1]: 12%
Cc1[nH]c2ccccc2c1[C@H]1CC[C@@H](N2CCN(c3cccc4[nH]ccc34)CC2)CC1				inhibition [1]: 4%
c1cc(N2CCN([C@H]3CC[C@H](c4c[nH]c5ccccc54)CC3)CC2)c2nc[nH]c2c1	0.0017 µM	0.075 µM	0%	
COc1ccc2[nH]cc([C@H]3CC[C@@H](N4CCN(c5cccc6[nH]ccc56)CC4)CC3)c2c1				inhibition [1]: 25%
Fc1ccc2c(c1)[nH]cc2[C@H]1CC[C@@H](N2CCN(c3cccc4[nH]ccc34)CC2)CC1			0%	
c1cc(N2CCN([C@H]3CC[C@@H](c4c[nH]c5ccccc54)CC3)CC2)c2nc[nH]c2c1	0.0079 µM	0.013 µM	0%	
Fc1cccc2[nH]cc([C@H]3CC[C@H](N4CCN(c5cccc6[nH]ccc56)CC4)CC3)c12				inhibition [1]: 0%
Fc1cccc2[nH]cc([C@H]3CC[C@@H](N4CCN(c5cccc6[nH]ccc56)CC4)CC3)c12				inhibition [1]: 27%
FC(F)(F)c1nc2c(N3CCN([C@H]4CC[C@@H](c5c[nH]c6ccccc65)CC4)CC3)cccc2[nH]1	0.0161 µM	0.105 µM	0%	
CCCn1cc([C@H]2CC[C@H](N3CCN(c4cccc5[nH]ccc45)CC3)CC2)c2cc(C#N)ccc21				inhibition [6]: 46%
Fc1ccc2[nH]cc([C@H]3CC[C@H](N4CCN(c5cccc6[nH]ccc56)CC4)CC3)c2c1				inhibition (Rattus norvegicus): 16%
Cc1nc2c(N3CCN([C@H]4CC[C@@H](c5c[nH]c6ccccc65)CC4)CC3)cccc2[nH]1	0.0107 µM	0.061 µM	0%	
CC(C)n1cc([C@H]2CC[C@H](N3CCN(c4cccc5[nH]ccc45)CC3)CC2)c2cc(C#N)ccc21				inhibition [1]: 16%; inhibition [6]: 46%
Clc1ccc2[nH]cc([C@H]3CC[C@H](N4CCN(c5cccc6[nH]ccc56)CC4)CC3)c2c1				inhibition [5]: 20%
C1=Nc2cccc(N3CCN([C@H]4CC[C@@H](c5c[nH]c6ncccc65)CC4)CC3)c2C1	0.0158 µM			inhibition [1]: 0%
Cc1nc2c(N3CCN([C@H]4CC[C@H](c5c[nH]c6ccccc65)CC4)CC3)cccc2[nH]1	0.003 µM	0.115 µM	0%	
FC(F)(F)c1nc2c(N3CCN([C@H]4CC[C@H](c5c[nH]c6ccccc65)CC4)CC3)cccc2[nH]1	0.0036 µM	0.075 µM	29%	
Fc1ccc2c(c1)[nH]cc2[C@H]1CC[C@H](N2CCN(c3cccc4[nH]ccc34)CC2)CC1	0.0054 µM			
Cn1cc([C@H]2CC[C@H](N3CCN(c4cccc5[nH]ccc45)CC3)CC2)c2cc(F)ccc21	0.09 µM	0.0675 µM		

Further lines, with some results ahead:

Ki [2]	Ki [3]	Emax [4]	SMILES	other results
0.0581 µM	0.0035 µM	0%	N#Cc1ccc2[nH]cc([C@H]3CC[C@@H](N4CCN(c5cccc6ncccc56)CC4)CC3)c2c1	
		66%	Fc1ccc2[nH]cc([C@H]3CC[C@H](N4CCN(c5cccc6cccnc56)CC4)CC3)c2c1	
0.0972 µM	0.0138 µM	0%	Fc1ccc2[nH]cc([C@H]3CC[C@@H](N4CCN(c5cccc6ncccc56)CC4)CC3)c2c1	
	0.0013 µM	23%	N#Cc1ccc2[nH]cc([C@H]3CC[C@@H](N4CCN(c5cccc6cccnc56)CC4)CC3)c2c1	
0.0029 µM			COc1ccc2[nH]cc([C@H]3CC[C@H](N4CCN(c5cccc6[nH]ccc56)CC4)CC3)c2c1	inhibition [5]: 45%
	0.0085 µM	11%	N#Cc1ccc2[nH]cc([C@H]3CC[C@H](N4CCN(c5cccc6[nH]ccc56)CC4)CC3)c2c1	
	0.0385 µM		CC(C)n1cc([C@H]2CC[C@@H](N3CCN(c4cccc5[nH]ccc45)CC3)CC2)c2cc(C#N)ccc21	
		0%	c1cc(N2CCN([C@H]3CC[C@@H](c4c[nH]c5ccccc54)CC3)CC2)c2cc[nH]c2c1	
0.0083 µM	0.073 µM	0%	Fc1ccc2[nH]cc([C@H]3CC[C@H](N4CCN(c5cccc6ncccc56)CC4)CC3)c2c1	
		20%	Fc1ccc2[nH]cc([C@H]3CC[C@@H](N4CCN(c5cccc6cccnc56)CC4)CC3)c2c1	
0.0426 µM		71%	Fc1ccc2[nH]cc([C@H]3CC[C@H](N4CCN(c5cccc6ccccc56)CC4)CC3)c2c1	inhibition [5]: 38%
	0.0016 µM	0%	N#Cc1ccc2[nH]cc([C@H]3CC[C@@H](N4CCN(c5cccc6[nH]ccc56)CC4)CC3)c2c1	
	0.02 µM	0%	N#Cc1ccc2[nH]cc([C@H]3CC[C@H](N4CCN(c5cccc6cccnc56)CC4)CC3)c2c1	
0.156 µM	0.0011 µM	0%	N#Cc1ccc2[nH]cc([C@H]3CC[C@@H](N4CCN(c5cccc6nccnc56)CC4)CC3)c2c1	
0.0062 µM	0.0049 µM	3%	N#Cc1ccc2[nH]cc([C@H]3CC[C@H](N4CCN(c5cccc6ncccc56)CC4)CC3)c2c1	
0.0053 µM			c1cc(N2CCN([C@H]3CC[C@H](c4c[nH]c5ccccc54)CC3)CC2)c2cc[nH]c2c1	
0.0091 µM	0.0136 µM	11%	N#Cc1ccc2[nH]cc([C@H]3CC[C@H](N4CCN(c5cccc6nccnc56)CC4)CC3)c2c1	
	0.64 µM	34%	Fc1ccc2[nH]cc([C@H]3CC[C@@H](N4CCN(c5cccc6ccccc56)CC4)CC3)c2c1	inhibition [6]: 46%
